Assay results from ChEMBL document CHEMBL1212738, “Phenotypic and genotypic characterization of Enterobacteriaceae with decreased susceptibility to carbapenems: results from large hospital-based surveillance studies in China” (2010).
Converted amounts (≈) assume the structure as drawn.

How the values were obtained:
Klebsiella pneumoniae [1] = assay: Antimicrobial activity against Klebsiella pneumoniae PU104T expressing TEM-1, CTX-M-15 by CLSI method; format: functional
Escherichia coli [2] = assay: Antimicrobial activity against carbapenem-resistant Escherichia coli PU96 deficient in TEM-1, CTX-M-14, CMY-2, ompC/F by CLSI method; format: functional
Escherichia coli [3] = assay: Antimicrobial activity against carbapenem-resistant Escherichia coli PU101 deficient in TEM-1, CTX-M-14, CMY-2, ompC by CLSI method; format: functional
Escherichia coli [4] = assay: Antimicrobial activity against carbapenem-resistant Escherichia coli PU102 deficient in TEM-1, CTX-M-14, CMY-2, aac(6')-Ib, ompC DEc, ompF by CLSI method; format: functional
Escherichia coli [5] = assay: Antimicrobial activity against Escherichia coli PU102T expressing TEM-1, CTX-M-14, CMY-2 by CLSI method; format: functional
Klebsiella aerogenes [6] = assay: Antimicrobial activity against carbapenem-resistant Enterobacter aerogenes PU41 deficient in CTX-M-14, DHA-1, qnrS1, ompC DEc, ompF by CLSI method; format: functional
Klebsiella aerogenes [7] = assay: Antimicrobial activity against Enterobacter aerogenes PU41T expressing CTX-M-14, DHA-1, qnrS1 by CLSI method; format: functional
Escherichia coli [8] = assay: Antimicrobial activity against Escherichia coli HX74T expressing CTX-M-3 by CLSI method; format: functional
Klebsiella aerogenes [9] = assay: Antimicrobial activity against carbapenem-resistant Enterobacter aerogenes WH85 deficient in TEM-1, CTX-M-3, ompC/F by CLSI method; format: functional
Enterobacter cloacae [10] = assay: Antimicrobial activity against carbapenem-resistant Enterobacter cloacae NJ90 deficient in CTX-M-14, ompC/F by CLSI method; format: functional
Enterobacter cloacae [11] = assay: Antimicrobial activity against carbapenem-resistant Enterobacter cloacae NJ91 deficient in CTX-M-14, ompC/F by CLSI method; format: functional
Klebsiella pneumoniae [12] = assay: Antimicrobial activity against carbapenem-resistant Klebsiella pneumoniae GZ84 deficient in SHV-11, aac(6')-Ib-cr, ompK35 by CLSI method; format: functional
Klebsiella pneumoniae [13] = assay: Antimicrobial activity against Klebsiella pneumoniae WH97 expressing SHV-33, aac(6')-Ib, ompK35 DE by CLSI method; format: functional
Enterobacter cloacae [14] = assay: Antimicrobial activity against carbapenem-resistant Enterobacter cloacae SZ93 deficient in ompC by CLSI method; format: functional
Klebsiella pneumoniae [15] = assay: Antimicrobial activity against carbapenem-resistant Klebsiella pneumoniae ZJ18 deficient in KPC-2, SHV-28, DHA-1, ompK35 by CLSI method; format: functional
Klebsiella pneumoniae [16] = assay: Antimicrobial activity against carbapenem-resistant Klebsiella pneumoniae ZJ70 deficient in KPC-2, SHV-11, CTX-M-14, ompK35/36 by CLSI method; format: functional
Klebsiella pneumoniae [17] = assay: Antimicrobial activity against Klebsiella pneumoniae ZJ70T expressing KPC-2 by CLSI method; format: functional
Klebsiella pneumoniae [18] = assay: Antimicrobial activity against Klebsiella pneumoniae ZJ99 expressing KPC-2, CTX-M-3, qnrS1, ompK35 DE by CLSI method; format: functional
Escherichia coli [19] = assay: Antimicrobial activity against Escherichia coli ZJ86T expressing KPC-2 by CLSI method; format: functional
Escherichia coli [20] = assay: Antimicrobial activity against Escherichia coli ZJ87 expressing KPC-2, TEM-1, ompC by CLSI method; format: functional
Escherichia coli [21] = assay: Antimicrobial activity against Escherichia coli ZJ87T expressing KPC-2 by CLSI method; format: functional
Klebsiella pneumoniae [22] = assay: Antimicrobial activity against carbapenem-resistant Klebsiella pneumoniae FZ47 deficient in IMP-8, TEM-1, SHV-11, CTX-M-14, qnrB2, aac(6')-Ib, ompK35/36 by CLSI method; format: functional
Klebsiella pneumoniae [23] = assay: Antimicrobial activity against Klebsiella pneumoniae FZ49T expressing IMP-8, TEM-1, CTX-M-14, qnrB2, aac(6')-Ib by CLSI method; format: functional
Klebsiella pneumoniae [24] = assay: Antimicrobial activity against Klebsiella pneumoniae GZ64 expressing IMP-4, ompK35/36 by CLSI method; format: functional
Klebsiella pneumoniae [25] = assay: Antimicrobial activity against Klebsiella pneumoniae GZ64T expressing IMP-4 by CLSI method; format: functional
Klebsiella pneumoniae [26] = assay: Antimicrobial activity against Klebsiella pneumoniae WH76 expressing IMP-4, TEM-1, SHV-14, CTX-M-3, qnrS1 by CLSI method; format: functional
Citrobacter freundii [27] = assay: Antimicrobial activity against Citrobacter freundii SZ63 expressing IMP-4, qnrS1by CLSI method; format: functional
Citrobacter freundii [28] = assay: Antimicrobial activity against Citrobacter freundii SZ63T expressing IMP-4, qnrS1by CLSI method; format: functional
Enterobacter cloacae [29] = assay: Antimicrobial activity against carbapenem-resistant Enterobacter cloacae SZ92 deficient in IMP-4, TEM-1, CTX-M-14, DHA-1, qnrB10/B4-like, aac(6')-Ib, ompC by CLSI method; format: functional
Escherichia coli [30] = assay: Antimicrobial activity against Escherichia coli C600 by CLSI method; format: functional
Klebsiella pneumoniae [31] = assay: Antimicrobial activity against carbapenem-resistant Klebsiella pneumoniae CY1 deficient in SHV-11, DHA-1, ompK35/36 by CLSI method; format: functional
Klebsiella pneumoniae [32] = assay: Antimicrobial activity against Klebsiella pneumoniae CY1T expressing SHV-11, DHA-1 by CLSI method; format: functional
Klebsiella pneumoniae [33] = assay: Antimicrobial activity against carbapenem-resistant Klebsiella pneumoniae PU4 deficient in SHV-1, DHA-1, ompK35/36 by CLSI method; format: functional
Klebsiella pneumoniae [34] = assay: Antimicrobial activity against carbapenem-resistant Klebsiella pneumoniae PU5 deficient in SHV-12, DHA-1, aac(6')-Ib-cr, ompK35/36 by CLSI method; format: functional
Klebsiella pneumoniae [35] = assay: Antimicrobial activity against carbapenem-resistant Klebsiella pneumoniae SZ61 deficient in TEM-1, SHV-1a, CMY-2, ompK35/36 by CLSI method; format: functional
Klebsiella pneumoniae [36] = assay: Antimicrobial activity against carbapenem-resistant Klebsiella pneumoniae CY75 deficient in SHV-11, DHA-1, ompK35/36 by CLSI method; format: functional
Klebsiella pneumoniae [37] = assay: Antimicrobial activity against carbapenem-resistant Klebsiella pneumoniae PU105 deficient TEM-1, SHV-12, CTX-M-14, DHA-1, qnrB10/B4-like, aac(6')-Ib-cr, ompK35/36 by CLSI method; format: functional
Escherichia coli [38] = assay: Antimicrobial activity against Escherichia coli C600 transconjugant SZ62T expressing IMP-4, qnrS1by CLSI method
Escherichia coli [39] = assay: Antimicrobial activity against Escherichia coli C600 transconjugant GZ66T expressing SHV-11, DHA-1 by CLSI method
Klebsiella pneumoniae [40] = assay: Antimicrobial activity against carbapenem-resistant Klebsiella pneumoniae ZJ68 deficient in CTX-M-15, ompK35/36 by CLSI method
Escherichia coli [41] = assay: Antimicrobial activity against carbapenem-resistant Escherichia coli ZJ86 expressing KPC-2, TEM-1 with ompC loss by CLSI method
Escherichia coli [42] = assay: Antimicrobial activity against Escherichia coli C600 transconjugant WH77T expressing IMP-4, TEM-1, CTX-M-3, qnrS1 by CLSI method

CO[C@@]1(NC(=O)Cc2cccs2)C(=O)N2C(C(=O)O)=C(COC(N)=O)CS[C@@H]21 [CEFOXITIN]
MIC (Klebsiella pneumoniae [1]): 256 µg/mL (≈ 599 µM) | MIC (Escherichia coli [2]): > 256 µg/mL | MIC (Escherichia coli [3]): > 256 µg/mL | MIC (Escherichia coli [4]): > 256 µg/mL | MIC (Escherichia coli [5]): > 256 µg/mL | MIC (Klebsiella aerogenes [6]): > 256 µg/mL | MIC (Klebsiella aerogenes [7]): 256 µg/mL (≈ 599 µM) | MIC (Escherichia coli [8]): 16 µg/mL (≈ 37.4 µM) | MIC (Klebsiella aerogenes [9]): 256 µg/mL (≈ 599 µM) | MIC (Enterobacter cloacae [10]): > 256 µg/mL | MIC (Enterobacter cloacae [11]): > 256 µg/mL | MIC (Klebsiella pneumoniae [12]): > 256 µg/mL | MIC (Klebsiella pneumoniae [13]): > 256 µg/mL | MIC (Enterobacter cloacae [14]): > 256 µg/mL | MIC (Klebsiella pneumoniae [15]): > 256 µg/mL | MIC (Klebsiella pneumoniae [16]): 128 µg/mL (≈ 299 µM) | MIC (Klebsiella pneumoniae [17]): 32 µg/mL (≈ 74.9 µM) | MIC (Klebsiella pneumoniae [18]): 32 µg/mL (≈ 74.9 µM) | MIC (Escherichia coli [19]): 64 µg/mL (≈ 150 µM) | MIC (Escherichia coli [20]): 64 µg/mL (≈ 150 µM) | MIC (Escherichia coli [21]): 64 µg/mL (≈ 150 µM) | MIC (Klebsiella pneumoniae [22]): > 256 µg/mL | MIC (Klebsiella pneumoniae [23]): > 256 µg/mL | MIC (Klebsiella pneumoniae [24]): > 256 µg/mL | MIC (Klebsiella pneumoniae [25]): 256 µg/mL (≈ 599 µM) | MIC (Klebsiella pneumoniae [26]): > 256 µg/mL | MIC (Citrobacter freundii [27]): > 256 µg/mL | MIC (Citrobacter freundii [28]): > 256 µg/mL | MIC (Enterobacter cloacae [29]): > 256 µg/mL | MIC (Escherichia coli [30]): 16 µg/mL (≈ 37.4 µM) | MIC (Klebsiella pneumoniae [31]): > 256 µg/mL | MIC (Klebsiella pneumoniae [32]): 64 µg/mL (≈ 150 µM) | MIC (Klebsiella pneumoniae [33]): > 256 µg/mL | MIC (Klebsiella pneumoniae [34]): > 256 µg/mL | MIC (Klebsiella pneumoniae [35]): > 256 µg/mL | MIC (Klebsiella pneumoniae [36]): > 256 µg/mL | MIC (Klebsiella pneumoniae [37]): > 256 µg/mL | MIC (Escherichia coli [38]): > 256 µg/mL | MIC (Escherichia coli [39]): 128 µg/mL (≈ 299 µM) | MIC (Klebsiella pneumoniae [40]): 32 µg/mL (≈ 74.9 µM) | MIC (Escherichia coli [41]): 64 µg/mL (≈ 150 µM) | MIC (Escherichia coli [42]): > 256 µg/mL

C[C@@H](O)[C@H]1C(=O)N2C(C(=O)O)=C(S[C@@H]3CN[C@H](C(=O)N(C)C)C3)[C@H](C)[C@H]12 [MEROPENEM]
MIC (Klebsiella pneumoniae [1]): 0.032 µg/mL (≈ 0.0834 µM) | MIC (Escherichia coli [2]): 8 µg/mL (≈ 20.9 µM) | MIC (Escherichia coli [4]): 8 µg/mL (≈ 20.9 µM) | MIC (Escherichia coli [5]): 0.032 µg/mL (≈ 0.0834 µM) | MIC (Klebsiella aerogenes [6]): 8 µg/mL (≈ 20.9 µM) | MIC (Klebsiella aerogenes [7]): 0.032 µg/mL (≈ 0.0834 µM) | MIC (Escherichia coli [8]): 0.064 µg/mL (≈ 0.167 µM) | MIC (Klebsiella aerogenes [9]): 8 µg/mL (≈ 20.9 µM) | MIC (Klebsiella pneumoniae [12]): 1 µg/mL (≈ 2.61 µM) | MIC (Klebsiella pneumoniae [13]): 2 µg/mL (≈ 5.22 µM) | MIC (Enterobacter cloacae [14]): 0.125 µg/mL (≈ 0.326 µM) | MIC (Klebsiella pneumoniae [15]): 8 µg/mL (≈ 20.9 µM) | MIC (Klebsiella pneumoniae [16]): 256 µg/mL (≈ 668 µM) | MIC (Klebsiella pneumoniae [17]): 8 µg/mL (≈ 20.9 µM) | MIC (Escherichia coli [19]): 8 µg/mL (≈ 20.9 µM) | MIC (Escherichia coli [20]): 8 µg/mL (≈ 20.9 µM) | MIC (Escherichia coli [21]): 8 µg/mL (≈ 20.9 µM) | MIC (Klebsiella pneumoniae [22]): 2 µg/mL (≈ 5.22 µM) | MIC (Klebsiella pneumoniae [23]): 1 µg/mL (≈ 2.61 µM) | MIC (Klebsiella pneumoniae [24]): 8 µg/mL (≈ 20.9 µM) | MIC (Klebsiella pneumoniae [25]): 2 µg/mL (≈ 5.22 µM) | MIC (Citrobacter freundii [27]): 4 µg/mL (≈ 10.4 µM) | MIC (Citrobacter freundii [28]): 4 µg/mL (≈ 10.4 µM) | MIC (Enterobacter cloacae [29]): 8 µg/mL (≈ 20.9 µM) | MIC (Escherichia coli [30]): 0.03 µg/mL (≈ 0.0782 µM) | MIC (Klebsiella pneumoniae [33]): 4 µg/mL (≈ 10.4 µM) | MIC (Klebsiella pneumoniae [34]): 8 µg/mL (≈ 20.9 µM) | MIC (Klebsiella pneumoniae [35]): 8 µg/mL (≈ 20.9 µM) | MIC (Klebsiella pneumoniae [36]): 8 µg/mL (≈ 20.9 µM) | MIC (Escherichia coli [38]): 4 µg/mL (≈ 10.4 µM) | MIC (Escherichia coli [39]): 0.032 µg/mL (≈ 0.0834 µM) | MIC (Klebsiella pneumoniae [40]): 8 µg/mL (≈ 20.9 µM) | MIC (Escherichia coli [41]): 8 µg/mL (≈ 20.9 µM) | MIC (Escherichia coli [42]): 4 µg/mL (≈ 10.4 µM)
